The values below come from PMC8859982 (Journal of medicinal chemistry, 2018).

One data set deals with DHODH (Homo sapiens, UniProt Q02127). Put plainly: DHODH inhibition assay. The class given is biochemical. Conditions: for LipE: lipophilic ligand efficiency from DHODH pIC50 (M) and cLogP.
The nature of data set [1]: Pharmacokinetic study in female CD-1 mice. The class given is in vivo.
The nature of the next data set: Thermodynamic solubility. Type of data set: physicochemical. Conditions: for solubility thermodynamic: PBS, pH 7.4, Thermodynamic solubility, PBS pH 7.4, CLND, each entry a single run.
The next data set deals with HCT-116. Conditions: HCT-116, comparator brequinar.
Another data set relates to MIA PaCa-2. Conditions: MIA PaCa-2, comparator brequinar.
For data set [2] the following is noted: pH 7.4; cited from earlier work.
The conditions of data set [3]: clinical trial, cited from earlier work.

Converted amounts (≈) assume the structure as drawn. Like-named read-outs stand apart in the source and are kept apart here.

DHODH, sequence (Q02127 whole entry): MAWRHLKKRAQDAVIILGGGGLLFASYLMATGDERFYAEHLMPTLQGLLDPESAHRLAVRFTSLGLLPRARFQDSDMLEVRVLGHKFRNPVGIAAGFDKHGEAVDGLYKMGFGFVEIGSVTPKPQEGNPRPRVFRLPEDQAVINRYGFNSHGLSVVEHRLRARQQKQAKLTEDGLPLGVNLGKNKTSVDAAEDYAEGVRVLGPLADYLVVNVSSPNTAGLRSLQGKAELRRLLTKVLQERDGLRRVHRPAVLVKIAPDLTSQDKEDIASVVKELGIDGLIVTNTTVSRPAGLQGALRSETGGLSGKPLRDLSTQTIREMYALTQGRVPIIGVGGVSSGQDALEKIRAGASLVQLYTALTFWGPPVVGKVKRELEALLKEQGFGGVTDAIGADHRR

Take `O=C(O)c1cc(-c2ccc(-c3cccnc3F)cc2)nc2ccccc12` [compound 28, 2-(4-(2-Fluoropyridin-3-yl)phenyl)quinoline-4-carboxylic Acid]: the “fold less potent than 22 (DHODH)” value on DHODH (comparator 22) came out at 9 fold. The “fold less potent than 26 (DHODH)” value on DHODH (comparator 26) is 64 fold. At DHODH, this molecule displayed a LipE of 1.45.

At DHODH, `Cc1c(-c2ccc(-c3ccccc3)cc2)nc2cnc(C(F)(F)F)cc2c1C(=O)O` [compound 48, 2-([1,1′-Biphenyl]-4-yl)-3-methyl-6-(trifluoromethyl)-1,7-naphthyridine-4-carboxylic Acid] came in with a LipE of 2.63.

As for `Cc1c(-c2ccc(-c3cccnc3Cl)cc2)nc2ccc(F)cc2c1C(=O)O` [compound 41, 2-(4-(2-Chloropyridin-3-yl)phenyl)-6-fluoro-3-methylquinoline-4-carboxylic Acid], the half-life (in general, the time needed for the level to fall by half in the phase considered) in data set [1] (female, CD-1, mouse, plasma, intravenous, oral) lay within 2.73 to 2.78 h. In data set [1] (mice, PO 20 mg/kg), this molecule yielded a CL-F of 0.555 L/h/kg and a Vz_F of 2.226 L/kg. The solubility (thermodynamic) (commonly the concentration in solution at equilibrium with solid) in the data set “Thermodynamic solubility” turned out to be 0.393 mg/mL (≈ 1000 µM).

For `O=C(O)c1cc(-c2ccc(C3CCCCC3)cc2)nc2ccccc12` [compound 3, 2-(4-Cyclohexylphenyl)quinoline-4-carboxylic Acid], the solubility (thermodynamic) in the data set “Thermodynamic solubility” worked out at 0.0145 mg/mL (≈ 43.8 µM).

The molecule `Cc1c(-c2ccc(-c3cccnc3Cl)cc2)nc2cnccc2c1C(=O)O` [compound 49, 2-(4-(2-Chloropyridin-3-yl)phenyl)-3-methyl-1,7-naphthyridine-4-carboxylic Acid] yielded a LipE on DHODH of 3.46.

Molecule `Cc1ccc(-c2ccc(-c3nc4cnccc4c(C(=O)O)c3C)cc2)c(Cl)n1` [compound 50, 2-(4-(2-Chloro-6-methylpyridin-3-yl)phenyl)-3-methyl-1,7-naphthyridine-4-carboxylic Acid] gave a LipE at DHODH of 1.65.

In turn, `Cc1c(-c2ccc(-c3ccccc3)cc2)nc2ncccc2c1C(=O)O` [compound 45, 2-([1,1′-Biphenyl]-4-yl)-3-methyl-1,8-naphthyridine-4-carboxylic Acid] showed a LipE at DHODH of 1.75.

For `Cc1c(-c2ccc(-c3ccccc3)cc2)nc2cnccc2c1C(=O)O` [compound 46, 2-([1,1′-Biphenyl]-4-yl)-3-methyl-1,7-naphthyridine-4-carboxylic Acid], the LipE on DHODH came to 3.39. Besides, the “fold more soluble than brequinar” value in the data set “Thermodynamic solubility” (PBS at pH 7.4) is on record as 2.5–3 ×. In the data set “Thermodynamic solubility”, the solubility (thermodynamic) is 1.05 mg/mL (≈ 3100 µM).

On to `Cc1c(-c2ccc(-c3ccccc3F)cc2)nc2cnc(C(F)(F)F)cc2c1C(=O)O` [compound 52, 2-(2’-Fluoro-[1,1’-biphenyl]-4-yl)-3-methyl-6-(trifluoromethyl)-1.7-naphthyridine-4-carboxylic Acid], for which the LipE at DHODH is listed as 2.74. In addition, the “fold more potent than brequinar in the MTT assay” value with HCT-116 and in the data set with MIA PaCa-2 was “at least 2 fold” throughout.

For `Cc1c(-c2ccc(-c3ccccc3F)cc2)nc2ccc(F)cc2c1C(=O)O` [Brequinar sodium], the water solubility in data set [2] is recorded as < 0.10 mg/mL.

Regarding `Cc1c(-c2ccc(-c3ccccc3)cc2)nc2ccncc2c1C(=O)O` [compound 47, 2-([1,1′-Biphenyl]-4-yl)-3-methyl-1,6-naphthyridine-4-carboxylic Acid], the LipE on DHODH came out at 1.39.

In turn, `Cc1c(-c2ccc(-c3ccccc3F)cc2)nc2ccc(F)cc2c1C(=O)O` [compound 1, brequinar] gave a LipE on DHODH of 2.20. Moreover, the solubility (thermodynamic) in “Thermodynamic solubility” was 0.407 mg/mL (≈ 1090 µM). Further, in data set [3] (IV 8 mg/m^2), the CL is recorded as 3.2 L/h/m^2, the highest concentration (Cmax) (commonly the highest concentration seen after dosing) is 1.8 µg/mL, the Vss is reported as 8.2 L/m^2 and the t1/2 was 2.9 h. For the same molecule, in data set [3] (IV 16 mg/m^2), the CL is on record as 4.9 L/h/m^2, the Cmax is 2.7 µg/mL, the Vss was 11.6 L/m^2 and the t1/2 is on record as 3.1 h. For the same molecule, in data set [3] (IV 36 mg/m^2), the Vss is 7.48 L/m^2.

Turning to `Cc1c(-c2ccc(-c3cccnc3Cl)cc2)nc2cnc(C(F)(F)F)cc2c1C(=O)O` [compound 51, 2-(4-(2-Chloropyridin-3-yl)phenyl)-3-methyl-6-(trifluoromethyl)-1.7-naphthyridine-4-carboxylic Acid], the LipE at DHODH is 2.69.
